Our source for the EC50 values is patent publication US11028068B2, “Somatostatin modulators and uses thereof” (Crinetics Pharmaceuticals, Inc., priority 2017, dated 2021).

SMILES strings stand for the structures.

This assay addresses T1, human somatostatin receptor subtype 2 (Homo sapiens, UniProt P30874).
T1 construct: expressed in transfected cells; host or cells: CHO (Chinese hamster ovary) cells, cultured under G-418 selection
The assay is described as follows: cAMP assay (inhibition of cAMP activities via sst2 receptor). Type of assay: cell-based. The settings on record: CHO cells expressing the human somatostatin receptor subtype 2, forskolin. The text has this:
General overview: All five SSTR subtypes are Gi coupled G-protein coupled receptors (GPCRs) that lead to decreases in intracellular cyclic AMP (cAMP) when activated by an agonist. Therefore, measurement of intracellular cAMP levels can be used to assess whether compounds of the invention are agonists of SSTR subtypes (John Kelly, Troy Stevens, W. Joseph Thompson, and Roland Seifert, Current Protocols in Pharmacology, 2005,2.2.1-2.2). One example of an intracellular cAMP assay is described below.
One day prior to the assay, 40,000 Chinese hamster ovary (CHO) cells expressing the human somatostatin receptor subtype 2 are plated in each well of a 96-well tissue culture plate in DM-MEM growth media (Gibco) with the following additives: 10% fetal bovine serum (Gibco), 100 U/mL penicillin (Gibco), 100 ug/mL streptomycin (Gibco), 10 mM HEPES (Gibco), 1.2 mM sodium hydroxide, 0.5 mg/mL G-418 (Gibco)). The cells are cultured overnight at 37° C., 5% CO2 and 95% humidity. On the day of the assay, the media is aspirated and the cells are washed with 1X Dulbecco's phosphate buffered saline (Gibco). Next, 5 μL of assay buffer (1× Earle's Balanced Salt Solution (Gibco), 5 mM MgCl2, 10 mM HEPES, 0.1% bovine serum albumin, 0.2 mM 3-Isobutyl-1-methylxanthine (IBMX, Biomol Research Labs)) and forskolin is added. Various dilutions of the compounds of the invention are prepared in assay buffer and 5 μL of the dilutions are added to the cultured cells and incubated for 15 minutes at 37° C. (the final concentration of the compounds of the invention are typically 0-10,000 nM). 10 μL of lysis buffer (HRTF cAMP kit, Cisbio) containing cAMP detection and visualization antibodies are added and the assay is allowed incubate for 1-24 hours at room temperature. The intracellular cAMP concentrations are then measured using a commercially available detection kit (for example, the cAMP HTRF kit, Cisbio). The measured intracellular cAMP concentrations are plotted vs. the concentration of the compounds of the invention and the EC50 of the compounds are calculated using standard methods.
(In general: Changes in cAMP serve as a functional read-out for many G protein-coupled receptors.)

T1 sequence (P30874 whole entry): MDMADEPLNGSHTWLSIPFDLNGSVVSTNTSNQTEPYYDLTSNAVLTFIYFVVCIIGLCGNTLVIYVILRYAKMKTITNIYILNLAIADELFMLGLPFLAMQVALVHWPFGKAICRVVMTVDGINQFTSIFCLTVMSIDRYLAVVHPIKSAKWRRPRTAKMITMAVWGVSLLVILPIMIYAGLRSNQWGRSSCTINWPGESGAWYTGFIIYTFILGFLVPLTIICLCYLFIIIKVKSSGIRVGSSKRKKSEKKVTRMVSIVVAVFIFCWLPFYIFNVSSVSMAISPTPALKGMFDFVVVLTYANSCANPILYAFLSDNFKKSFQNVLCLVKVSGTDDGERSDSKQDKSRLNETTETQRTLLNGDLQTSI

For the compound `CC[C@H](N)CN(C)C(=O)c1c(-c2cc(C)cc(Cl)c2)cnc2ccc(-c3cc(O)cc(C#N)c3)nc12` [Compound 2-6, N-[(2S)-2-aminobutyl]-3-(3-chloro-5-methylphenyl)-6-(3-cyano-5-hydroxyphenyl)-N -methyl-1,5-naphthyridine-4-carboxamide], the EC50 (commonly the midpoint of the concentration-response curve) is less than 100 nM.

In turn, `CN(C[C@@H]1CCCN1)C(=O)c1c(C2=CCCC2)cnc2ccc(-c3cc(F)cc(C#N)c3)nc12` [Compound 3-9, 6-(3-cyano-5-fluorophenyl)-3-(cyclopent-1-en-1-yl)-N-methyl-N-[(2S)-pyrrolidin-2-ylmethyl]-1,5-naphthyridine-4-carboxamide] came in with an EC50 of less than 100 nM.

`COC(=O)Cc1cccc(-c2cnc3ccc(-c4cccc(O)c4)nc3c2C(=O)N(C)C[C@@H]2CCCN2)c1` [Compound 2-21, methyl 2-{3-[6-(3-hydroxyphenyl)-4-{methyl[(2S)-pyrrolidin-2-ylmethyl]carbamoyl}-1,5-naphthyridin-3-yl]phenyl}acetate] showed an EC50 of 100 to 1000 nM.

For `Cc1cc(F)cc(-c2cnc3ccc(N4CCCC4)nc3c2C(=O)N(C)C[C@@H]2CCCN2)c1` [Compound 3-2, 3-(3-fluoro-5-methylphenyl)-N-methyl-6-(pyrrolidin-1-yl)-N-[(2S)-pyrrolidin-2-ylmethyl]-1,5-naphthyridine-4-carboxamide], the EC50 was in the range of 100 to 1000 nM.

Regarding `CN(C[C@@H]1CCCN1)C(=O)c1c(N2CC(C)(C)OC(C)(C)C2)cnc2ccc(-c3cc(F)cc(C#N)c3)nc12` [Compound 3-49, 6-(3-cyano-5-fluorophenyl)-N-methyl-N-[(2S)-pyrrolidin-2-ylmethyl]-3-(2,2,6,6-tetramethylmorpholin-4-yl)-1,5-naphthyridine-4-carboxamide], the EC50 was in the range of 100 to 1000 nM.

In the case of `CN(C[C@@H]1CCCN1)C(=O)c1c(-c2cccc(-n3cccn3)c2)cnc2ccc(-c3cccc(O)c3)nc12` [Compound 2-8, 6-(3-hydroxyphenyl)-N-methyl-3-[3-(1H-pyrazol-1-yl)phenyl]-N-[(2S)-pyrrolidin-2-ylmethyl]-1,5-naphthyridine-4-carboxamide], the EC50 lay within 100 to 1000 nM.

As to `CN(C[C@@H]1CCCN1)C(=O)c1c(N2CC3CCC(C2)O3)cnc2ccc(-c3cc(F)cc(C#N)c3)nc12` [Compound 3-70, 6-(3-cyano-5-fluorophenyl)-N-methyl-3-{8-oxa-3-azabicyclo[3.2.1]octan-3-yl}-N-[(2S) -pyrrolidin-2-ylmethyl]-1,5-naphthyridine-4-carboxamide], the EC50 fell in the range of 100 to 1000 nM.

In turn, `Cc1cc(Cl)cc(-c2cnc3ccc(-c4cc(O)ccc4F)nc3c2C(=O)N(C)C[C@@H]2CCCN2)c1` [Compound 2-3, 3-(3-chloro-5-methylphenyl)-6-(2-fluoro-5-hydroxyphenyl)-N-methyl-N-[(2S)-pyrrolidin-2-ylmethyl]-1,5-naphthyridine-4-carboxamide] had an EC50 of less than 100 nM.

In turn, `CC#Cc1cnc2ccc(-c3cc(F)cc(C#N)c3)nc2c1C(=O)N(C)C[C@@H]1CCCN1` [Compound 3-7, 6-(3-cyano-5-fluorophenyl)-N-methyl-3-(prop-1-yn-1-yl)-N-[(2S)-pyrrolidin-2-ylmethyl]-1,5-naphthyridine-4-carboxamide] showed an EC50 of 100 to 1000 nM.

In turn, `CN(C[C@@H]1CCCN1)C(=O)c1c(N2CCCC2)cnc2ccc(-c3cccc(O)c3)nc12` [Compound 3-4, 6-(3-hydroxyphenyl)-N-methyl-3-(pyrrolidin-1-yl)-N-[(2S)-pyrrolidin-2-ylmethyl]-1,5-naphthyridine-4-carboxamide] came in with an EC50 of less than 100 nM.

The compound `CN(C[C@@H]1CCCN1)C(=O)c1c(-c2cccc(CCC(=O)O)c2)cnc2ccc(-c3cccc(O)c3)nc12` [Compound 2-22, 3-{3-[6-(3-hydroxyphenyl)-4-{methyl[(2S)-pyrrolidin-2-ylmethyl]carbamoyl}-1,5-naphthyridin-3-yl]phenyl}propanoic acid] had a concentration for a half-maximal effect (EC50) of 100 to 1000 nM.
